{"source": "PubChem BioAssay (NCI)", "note": "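Assay format: 96-well plates, 48-hour exposure. At the GI50, growth is halved. TGI: total growth inhibition.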 Where a SMILES comes first, the peptide text is derived from it. Bridges are numbered along the chain shown (N, C = ends). [ ]: non-standard residue; d: D form. The star is where a group is joined. ξ: configuration not given here. ξDab(CH2SO3H) = NC(CCNCS(=O)(=O)O)C(=O)O; Heptanoyl(6-Me) = CC(C)CCCCC(=O)*; Dab = NCC[CH](N)C(=O)O", "data": [{"tested_on": "MDA-MB-468 breast", "test": "NCI-60 cell line screen, 48 h", "units": {"GI50": "nM", "TGI": "µM"}, "values": [{"compound": "O=[N+]([O-])c1ccc(C2CC(c3ccccc3)=Nc3ccccc3S2)cc1", "note": "(stereo not given)", "GI50": "> 100000", "TGI": "> 100"}, {"compound": "Cc1cc(Nc2ncc3c(n2)N(C)C(=O)N(c2cc(NC(=O)c4cccc(C(F)(F)F)c4)ccc2C)C3)n(C)n1", "GI50": 57.9, "TGI": 0.396}, {"compound": "Cc1nc(-c2nc(-c3ccc(OC(F)(F)F)cc3)no2)nn1Cc1cccc(N2CCC(S(C)(=O)=O)CC2)c1", "GI50": "< 10", "TGI": 3.9}, {"compound": "CC(=O)Nc1c(I)c(NC(C)=O)c(I)c(C(=O)O)c1I", "GI50": "> 100000", "TGI": "> 100"}, {"compound": "COCCNc1ccc2c3c(cccc13)C(=O)N(CCN(C)C)C2=O", "GI50": 7100, "TGI": "> 25"}, {"compound": "CC/C(=C(/c1ccc(O)cc1)c1ccc(OCCN)cc1)c1ccccc1", "GI50": 1570, "TGI": 3.94}, {"compound": "N#Cc1c(N2CCOCC2)nc(=S)[nH]c1-c1ccccc1", "GI50": 25800, "TGI": "> 100"}, {"compound": "COc1cc(/C(=C2/O[C@@H]([C@H]3COC(C)(C)O3)[C@H]3OC(C)(C)O[C@@H]23)c2ccc3ccccc3c2)cc(OC)c1OC", "GI50": 4020, "TGI": 21.1}, {"compound": "CC[C@@H](C(=O)[C@H](C)[C@H](O)[C@@H](C)[C@H]1O[C@H]([C@@H](CC)C(=O)N(CC)CC)CC[C@H]1C)C1O[C@]2(C=C[C@@H](O)[C@]3(CC[C@@](C)([C@H]4CC[C@](O)(CC)[C@H](C)O4)O3)O2)[C@H](C)C[C@@H]1C", "note": "(stereo not given in full)", "GI50": 1810, "TGI": 5.8}, {"compound": "N#C[Se]CCN1C(=O)C2C(C1=O)[C@H]1C=C[C@@H]2S1", "note": "(stereo not given in full)", "GI50": 2600, "TGI": 7.71}, {"compound": "N=C(N)SCc1c2ccccc2c(CSC(=N)N)c2ccccc12", "GI50": 2320, "TGI": 9.81}, {"compound": "CCOC(=O)c1cc(C(=O)c2cc(OC)c(OC)c(OC)c2)n2c1ccc1ccccc12", "GI50": 158}, {"compound": "CC(C)(C)[Si](C)(C)OC1[C@@H](O[Si](C)(C)C(C)(C)C)[C@@H](CNC(=O)NC(=O)CF)O[C@H]1n1cnc2c(NC(=O)Nc3ccccc3)ncnc21", "note": "(stereo not given in full)", "GI50": 3210, "TGI": 20.1}, {"compound": "Cn1cc(C2=C(c3c4n(c5ccccc35)CCC(CN)C4)C(=O)NC2=O)c2ccccc21", "note": "(stereo not given)", "GI50": 2910, "TGI": 6.89}, {"compound": "O=C(/C(=C/c1ccc([N+](=O)[O-])cc1)SCc1ccc(Cl)cc1)c1ccc(F)cc1", "GI50": 2870, "TGI": 9.22}, {"compound": "S=C(NCCNC(=S)[S][Sn]([c]1ccccc1)([c]1ccccc1)[c]1ccccc1)[S][Sn]([c]1ccccc1)([c]1ccccc1)[c]1ccccc1", "GI50": 12.9, "TGI": 0.0419}, {"compound": "CCC(C)C1NC(=O)C(CCNCS(=O)(=O)O)NC(=O)C(NC(=O)C(CCNCS(=O)(=O)O)NC(=O)C(NC(=O)C(CCNCS(=O)(=O)O)NC(=O)CCCCC(C)C)C(C)O)CCNC(=O)C(C(C)O)NC(=O)C(CCNCS(=O)(=O)O)NC(=O)C(CCNCS(=O)(=O)O)NC(=O)C(C(C)CC)NC1=O", "note": "(stereo not given) ({Heptanoyl(6-Me)}-[ξDab(CH2SO3H)]T[ξDab(CH2SO3H)][Dab][ξDab(CH2SO3H)]II[ξDab(CH2SO3H)][ξDab(CH2SO3H)]T; lactam 4-C; configuration not given here)", "GI50": 807, "TGI": 4.89}, {"compound": "CC[C@]12CC(C(=O)OC)=C3Nc4ccccc4[C@@]34CCN(C14)[C@@H]1c3cc4c(cc3O[C@@H]1[C@H]2O)NC1=C(C(=O)OC)C[C@@]2(CC)C3N(CC[C@@]143)C[C@H]1O[C@H]12", "note": "(stereo not given in full)", "GI50": 129, "TGI": 1.05}, {"compound": "COc1cc(C(=O)N2CCN(c3ccccc3)CC2)c2ccccc2n1", "GI50": 31.8, "TGI": 0.211}, {"compound": "Cc1ccc2c(c1)c(Sc1ccc(C(=O)NO)cc1)c1n2CN(C)CC1", "GI50": 1100, "TGI": 2.97}, {"compound": "COc1ccc(Nc2cc(C)nc(NCc3ccccc3)n2)cc1", "GI50": 776, "TGI": 2.51}, {"compound": "CN1CCC2(CC1)NC(=O)c1c(c3ccc(Cl)c(Cl)c3n1C)C2C#N", "note": "(stereo not given)", "GI50": 2180, "TGI": 6.87}, {"compound": "COc1cc2c(cc1Cc1cccc(Cl)c1F)c(=O)c(C(=O)O)cn2[C@@H](CO)C(C)C", "GI50": 3260, "TGI": 9.32}, {"compound": "O=C([O][Hg][CH2]C1OCCOC1[CH2][Hg][O]C(=O)c1ccccc1)c1ccccc1", "note": "(stereo not given)", "GI50": 1710, "TGI": 3.08}, {"compound": "C[C@@H](NC(=O)/C(C#N)=C/c1ccc([N+](=O)[O-])cc1)c1ccccc1", "GI50": 1740, "TGI": 3.37}, {"compound": "[Cl][Hg][c]1ccc(Cl)s1", "GI50": 1190, "TGI": 2.77}, {"compound": "CN(C)CCCCC(C(=O)CBr)(c1ccccc1)c1ccccc1", "GI50": 1090, "TGI": 2.89}, {"compound": "COc1cc2ncnc(Nc3cccc(Cl)c3F)c2cc1OC(=O)N1CCN(C)C[C@H]1C", "GI50": 60.7, "TGI": 1.27}, {"compound": "Cc1ccc2c(n1)C(=O)C(Cl)=C(Nc1ccccc1C(=O)OC(C)(C)C)C2=O", "GI50": 1470, "TGI": 3.25}, {"compound": "CCOC(=O)Nc1nc2ccc(Br)cc2s1", "GI50": "> 50000", "TGI": "> 50"}, {"compound": "N#Cc1c(N)n2c(nc1=Nc1ccc(Cl)cc1)sc1cc(Cl)ccc12", "GI50": 3620, "TGI": "> 100"}, {"compound": "C=C1[C@@H](C)C2[C@H](Cc3ccccc3)NC(=O)[C@]23[C@H](OC(C)=O)/C=C/[C@@](C)(O)C(=O)[C@@H](C)C/C=C/[C@H]3[C@@H]1O", "note": "(stereo not given in full)", "GI50": 38.9, "TGI": 12.7}, {"compound": "CN(C)CCCOc1c2ccc(Cl)cc2nc2c1oc1ccccc12", "GI50": 1950, "TGI": 5.07}, {"compound": "Cn1nc(C(F)(F)F)cc1-c1c[nH]c(OCc2ccc(Cl)cc2)c(-c2ccc(Cl)c(C(F)(F)F)c2)c1=O", "GI50": 940, "TGI": 4.73}, {"compound": "CCN1C(=O)N(CC)C2C1NN=c1s/c(=C\\c3ccco3)c(=O)n12", "note": "(stereo not given)", "GI50": 356, "TGI": "> 100"}, {"compound": "Clc1ccc(Nc2ccnc(N3CCN(c4ccnc5cc(Cl)ccc45)CC3)n2)cc1", "GI50": 2080, "TGI": 5.56}, {"compound": "C[C@]12CC[C@@H]3c4cc(O)c(O)cc4CC[C@H]3[C@@H]1CC[C@@H]2O", "GI50": 3820, "TGI": 21.1}, {"compound": "CN1CCN(Cc2ccc(NC(=O)c3cncc(C#Cc4cnc5ccc(OCC(C)(C)O)nn45)c3)cc2C(F)(F)F)CC1", "GI50": 183, "TGI": 0.409}, {"compound": "COc1cc2c(c(OC)c1OC)-c1ccc(OC)c(=O)cc1[C@@H](NC(C)=O)CC2", "GI50": "< 10", "TGI": "> 100"}, {"compound": "COc1ccc2c(O)c(/C=C3\\N=Nc4ccccc43)oc2c1C[C@@H]1CCNC[C@H]1F", "GI50": 10400, "TGI": 23.6}, {"compound": "CCCCCCn1c(-c2ccc(C(=O)O/N=C(\\N)c3ccc4ccccc4c3)cc2)nc(-c2ccccc2)c1-c1ccccc1", "GI50": 22200, "TGI": 97.7}, {"compound": "C=C1C(=O)O[C@H]2[C@H]1CC/C(C=Nc1c(N)cc(C(F)(F)F)cc1C(F)(F)F)=C\\CC[C@@]1(C)O[C@@H]21", "GI50": 1500, "TGI": 3.21}, {"compound": "CCCCCCCCCCCCSC1=C(Cl)C(=O)C(OC)=C(OC)C1=O", "GI50": 438, "TGI": 16.9}, {"compound": "N/C(=N/N=C/c1ccccc1)N/N=C\\c1ccccc1", "GI50": 2520, "TGI": 11.3}, {"compound": "COc1cccc(/C=N/NC(=O)c2ccccc2N2CCCC2)c1O", "GI50": 3330, "TGI": "> 100"}, {"compound": "Cc1cc(O)cc(C)c1/C=C/c1cncc(C(N)=O)c1", "GI50": 749, "TGI": 4.62}, {"compound": "O=C(Nc1ccc(-n2cc(-c3ccncc3)c(-c3ccc(O)c(Cl)c3)n2)cc1)Nc1ccc(Cl)c(C(F)(F)F)c1", "GI50": 2960, "TGI": 13.1}, {"compound": "CCCCCCCCC/C(=N\\NC(=O)c1ccncc1)c1ccc(O)c(O)c1O", "GI50": 161, "TGI": 1.11}]}]}
